Measured values published in paper PMC11056319, “Targeting PRMT9-mediated arginine methylation suppresses cancer stem cell maintenance and elicits cGAS-mediated anticancer immunity” (Nature Cancer, 2024).

Each compound was assayed on Molm13 (assay: cells). Details: Homo sapiens, MOLM-13, 96 h, 4 days.
Parameters: Molm13 cell viability screen of virtual-screening hits, 4 days of treatment, per cent of control
Experimental: We performed virtual screening. Briefly, we screened compounds for binding affinity to PRMT9; compounds were from the National Cancer Institute (NCI) and ZINC library (Fig. 4a,b). […] We used doses of 1 and 5 µM in a Molm13 cell-based viability assay (Extended Data Fig. 6a). […] Specifically, we assessed their effects on PRMT9 catalysis (Extended Data Fig. 6b). […] Cells were treated for 4 days with 1 or 5 μM compounds. For each compound, the number represents its library ID. Experiments were triplicated; P values were derived from t tests. b, R493 methylation assay. […] Catalytic activity was assessed by anti-R493 antibody. Synthesized R493me peptide as positive control. c, Catalysis screen of top 20 compounds. PRMT9 protein was pretreated with indicated compound (10 μM), then incubated with PABPC1 peptides and SAM. d, e, Catalytic activity of indicated compounds based on R493 methylation assay (d). Inhibition curves were calculated based on intensity of dots and normalized to DMSO (e). […] LD2 is designed based on NSC641396 (g). Docking model of NSC641396 in the catalytic pocket (f). h, IC50 analysis of LD2 in B-NHL lines. Cells were treated for 4 days with LD2. […] Cells were treated with a dose titration of 0.5–40 μM LD2 for 48 hr. The inhibition activity of LD2 to PRMT9 (right red curve) was evaluated by calculating the normalized PABPC1 R493 methylation signal. The inhibition activity of LD2 to PRMT5 (right blue curve) was evaluated by calculating the normalized SmB’B’ methylation signal (supplementary Fig. 2). k, Vina docking of LD2 with PRMT9, PRMT5, CARM1 or PRMT7 was performed, and the average docking scores (kcal/mol, with standard deviation) were shown. l, Molecular dynamics simulation analyses of LD2 with PRMT9 or PRMT5.

SMILES | viability at 1 µM | viability at 5 µM
O=C(O)c1ccccc1-c1ccccc1C(=O)Nc1ccc2c(c1)nc(O)c1ccccc12 [NSC127133] | 99% | 102%
Clc1ccccc1-c1nc2ccccc2[nH]1 [NSC128751] | 80.4% | 80%
CCn1c2ccccc2c2cc(NC(=O)c3ccccc3-c3ccccc3C(=O)O)ccc21 [NSC132232] | 91.3% | –
CN1C2c3ccccc3C3C4c5ccccc5C(C31)C(C2[N+](=O)[O-])N4C (stereo not drawn) [NSC137112] | 146% | 148%
CCNc1nc(Cl)nc(-c2cn(-c3ccccc3)c3ccccc23)n1 [NSC142446] | 87.1% | –
O=C(Nc1ccc(Nc2ccncc2)cc1)c1ccc(Nc2ccnc3ccc([N+](=O)[O-])cc23)cc1 [NSC146771] | 91.1% | –
O=C1c2cccc(Sc3ccccc3)c2C(=O)c2c(Sc3ccccc3)cccc21 [NSC156516] | 122% | 118%
O=C(Nc1ccc2ccccc2c1)c1ccc(Cl)cc1Cl [NSC158959] | – | 127%
O=C(Nc1ccc(Nc2ccncc2)cc1)c1ccc(Nc2ccnc3ccc([N+](=O)[O-])cc23)cc1[N+](=O)[O-] [NSC202386] | 118% | 80.4%
O=C(Nc1cccc([N+](=O)[O-])c1)c1cccc(C(=O)Nc2cccc([N+](=O)[O-])c2)c1 [NSC204232] | 110% | –
O=C(Nc1ccccc1Cl)Oc1ccc(-c2ccccc2)cc1 [NSC204321] | – | 90.1%
O=C(Nc1ccccc1F)Nc1cccc2ccc(O)cc12 [NSC214005] | 81.3% | 72.7%
O=C(Nc1ccccc1F)Oc1cccc(OC(=O)Nc2ccccc2F)c1 [NSC214026] | 92.2% | 91%
CC1=CC(C)(C)Nc2ccc(Cc3ccc4c(c3)C(C)=CC(C)(C)N4)cc21 [NSC217697] | 69.3% | 74.4%
CO[C@@H]1[C@@H](OC(=O)c2ccc(C)[nH]2)[C@@H](O)[C@H](Oc2ccc3c(O)c(NC(=O)c4ccc(O)c(CC=C(C)C)c4)c(=O)oc3c2Cl)OC1(C)C [NSC227186] | – | 110%
Fc1ccc(-c2cc(-c3cccs3)cc(-c3ccccc3)n2)cc1 [NSC246999] | – | 98.7%
Cc1cc(N2CCN(C)CC2)n2nc(-c3ccc(Cl)cc3)nc2n1 [NSC252359] | 64% | 75.8%
O=C1c2ccccc2-c2nc3ccccc3n21 [NSC252777] | 77.6% | 63.7%
O=C(Oc1ccc(NC(=O)c2cc3c(cc2Br)OCO3)cc1)c1ccccc1 [NSC268487] | 83.1% | 72.1%
CO[C@@H]1C[C@](C)(O)Cc2cc3c(c(O)c21)C(=O)c1c(O)cc2c(c1C3=O)O[C@@H]1O[C@@]2(C)[C@H](O)[C@@H](N(C)C)[C@@H]1O [NSC269148] | 2.1% | 1.55%

SMILES | viability at 1 µM | viability at 5 µM
Cc1ccc(C2=Nc3ccccc3SC(c3cccc([N+](=O)[O-])c3)C2)cc1 (stereo not drawn) [NSC270737] | 90.8% | 15.1%
O=[N+]([O-])c1ccc(C2CC(c3ccccc3)=Nc3ccccc3S2)cc1 (stereo not drawn) [NSC270738] | 84.6% | –
COc1cc2c(=O)n3c4c(cccc4c2cc1OC)CC3 [NSC276736] | 97.9% | –
O=c1cc(-c2cccnc2)oc2c1ccc1ccccc12 [NSC283845] | – | 60.4%
O=C(Nc1cccc2ccccc12)c1cc2c(cc1Br)OCO2 [NSC292923] | 68.9% | 68.3%
c1ccc(-c2nc3ccccc3nc2-c2ccc(Sc3ccc(-c4nc5ccccc5nc4-c4ccccc4)cc3)cc2)cc1 [NSC293778] | 95.7% | –
Cc1nn(-c2ccccc2)c2c1C(c1ccc([N+](=O)[O-])cc1)C(C#N)=C(N)O2 (stereo not drawn) [NSC298892] | 84.2% | 69.1%
Nc1nc(N)c2cc(Sc3ccc4ccccc4c3)ccc2n1 [NSC305780] | 12.7% | 6.56%
OC(c1cc(-c2ccc(C(F)(F)F)cc2)nc(C(F)(F)F)c1)C1CCCCN1 (stereo not drawn) [NSC305798] | 91% | 18.9%
N#C/C(=C\C=C\c1ccccc1)c1nc(-c2ccc(Cl)cc2)cs1 [NSC310347] | 69.3% | 74.4%
COc1cc(C2NC(=O)C(C#N)=C(Nc3cccc(C)c3)S2)ccc1O (stereo not drawn) [NSC319435] | 96.8% | –
Cc1cccc(NC2=C(C#N)C(=O)NC3(CCCC3)S2)c1 [NSC319436] | 84% | 77.3%
Cc1ccc(NC(=O)Nc2nc3ccccc3s2)cc1NC(=O)Nc1nc2ccccc2s1 [NSC319990] | – | 96.9%
Clc1cc2c(c(CSc3nc4ccccc4n4cccc34)c1)OCOC2 [NSC321491] | – | 85.7%
Cc1c(N2CCCC2)cc2c(c1NC(=O)c1ccccc1Cl)C(C)(C)CC2(C)C [NSC321496] | 92.4% | 79.1%
c1ccc(CSc2nnc3c4ccccc4c4ccccc4c3n2)cc1 [NSC327702] | 86.4% | 82.6%
Oc1c(Cl)cc(Cl)cc1/C=N/c1nc(-c2ccc(Cl)cc2)cs1 [NSC328104] | 87.9% | –
Clc1ccc(-c2n[nH]c3c2Cc2ccccc2-3)cc1Cl [NSC331968] | 62.9% | 43.2%
Oc1ccccc1-c1nc2c3ccccc3c3ccccc3c2[nH]1 [NSC332670] | 79.2% | 84.8%
O=C(Nc1ccccc1-c1ccccc1)C(=O)Nc1ccccc1-c1ccccc1 [NSC338042] | – | 93.1%

SMILES | viability at 1 µM | viability at 5 µM
CCN(CC)c1nc(Cl)nc(Nc2ccc3cc(-c4ccccc4)c(=O)oc3c2)n1 [NSC338963] | 114% | 110%
CC(=O)OCc1cc(-c2nc3ccccc3nc2O)nn1-c1ccc(Cl)cc1 [NSC339161] | – | 87.5%
CCN1Cc2c(/C=C/c3ccccc3)nc3ccc(OC)cc3c2N(c2cccc(Cl)c2)C1 [NSC340852] | 88.3% | 53.2%
Cc1nn(-c2ccccc2)nc1C(=O)Nc1ccc2[nH]ncc2c1 [NSC371765] | – | 86.1%
COc1ccc(C2OC3=C(Nc4cc(C)c(C)cc4N3)C2=O)cc1 (stereo not drawn) [NSC372275] | 95.6% | –
C#Cc1cccc(NC(=O)c2ccc(Cl)cc2Cl)c1 [NSC372769] | 82.8% | 93.1%
O=C(O)C(Cc1c[nH]c2ccccc12)N1C(=O)c2ccccc2C1=O (stereo not drawn) [NSC401077] | 94.6% | 75.3%
O=C(O)CCC(=O)c1ccc2ccc3cccc4ccc1c2c34 [NSC407628] | 94.7% | 100%
O=C(Nc1ccc(Br)c2ccccc12)c1ccc2ccccc2c1O [NSC601359] | – | 72.7%
Cc1c(Cl)cccc1NC(=O)CC1Sc2ccccc2NC1=O (stereo not drawn) [NSC634396] | 169% | 118%
COc1ccccc1/C=C1\Cc2ccccc2C1=O [NSC636717] | – | 86%
COc1cccc(/C=C2\CCc3ccccc3C2=O)c1 [NSC636718] | – | 65.6%
COc1ccc2c(c1)c1ccc3c(c1n2C)C(=O)C=CC3=O [NSC641396] | 2.72% | 1.44%
COc1ccc(/C=C2\Cc3ccccc3C2=O)cc1OC [NSC643174] | 116% | 81%
Cc1cccc2c1c1ccc3c(c1n2C)C(=O)C=CC3=O [NSC645330] | 52.5% | 10%
CCCc1cc(=O)oc2c3c(c4c(c12)OC(C)(C)C=C4)OC(C)[C@H](C)[C@@H]3O (stereo partly drawn) [NSC661122] | 100% | 79.3%
Cc1ccc2c(c1)c1ccc3c(c1n2C)C(=O)C=CC3=O [NSC661221] | 7.53% | 7.31%
CC(=O)c1sc2c(c1OC(=O)c1ccc(Cl)cc1Cl)c(=O)n(-c1ccccc1)c(=S)n2-c1ccccc1 [NSC671136] | 71.5% | 12.8%
